IC50 data for 15 compounds are collected here from patent publication US20250381243A1, “HETEROCYCLES AND USES THEREOF” (Kumquat Biosciences Inc., priority 2022, published 2025).

SMILES strings stand for the structures. Read-outs that look alike come from different tables or passages of the source.

As usually defined, the IC50 is the concentration that inhibits the measured activity by half.

The assay deals with A549 cells. Nature of the assay: Cell proliferation assay (CellTiter-Glo), cells with K-Ras G12S mutation. Type of assay: cell-based. The conditions noted are these: Homo sapiens, read-out: Inhibition of A549 Cells (IC50). The protocol: A549 (ATCC CRL-185) and LS123 (ATCC CRL-255) cell lines comprise a G12S mutation and can be used to assess Ras cellular signaling in vitro, e.g., in response to treatment with a compound described herein. A549 culture medium is prepared with RPMI-1640 and 10% heat-inactivated FBS. LS123 culture medium is prepared with RPMI-1640 and 10% heat-inactivated FBS. A CellTiter-Glo (CTG) luminescent based assay (Promega) is used to assess growth of the cells, as a measurement of the ability of the compounds herein to inhibit Ras signaling in the cells. The cells (e.g., 800 per well) are seeded in their respective culture medium in standard tissue culture-treated 384-well format plates (Falcon #08-772-116) or ultra-low attachment surface 384-well format plates (S-Bio #MS-9384WZ). The day after plating, cells are treated with a dilution series (e.g., a 10 point 3-fold dilution series) of the compounds herein (e.g., approximately 40 μl final volume per well). Cell viability can be monitored (e.g., approximately 6 days later) according to the manufacturer's recommended instructions, where CellTiter-Glo reagent is added (e.g., approximately 10 μl), vigorously mixed, covered, and placed on a plate shaker (e.g., approximately for 20 min) to ensure sufficient cell lysis prior to assessment of luminescent signal. The IC50 values are determined using the four parameter fit. The resulting IC50 value is a measurement of the ability of the test compound to reduce cell growth of Ras-driven cells (e.g., tumor cell lines) in vitro and/or in vivo.

As to `CN(C[C@@H]1CN(C(=O)n2cnc(F)n2)[C@@H]1C1(C)CC1)c1nc(OC[C@@]23CCCN2C[C@H](F)C3)nc2c(F)c(-c3ccc(F)c4sc(N)c(C#N)c34)c(Cl)cc12` [Compound 130, 2-amino-4-(6-chloro-8-fluoro-4-((((2S,3R)-1-(3-fluoro-1H-1,2,4-triazole-1-carbonyl)-2-(1-methylcyclopropyl)azetidin-3-yl)methyl)(methyl)amino)-2-(((2R,7aS)-2-fluorotetrahydro-1H-pyrrolizin-7a(5H)-yl)methoxy)quinazolin-7-yl)-7-fluorobenzo[b]thiophene-3-carbonitrile], the concentration for half-maximal inhibition (IC50) (≤500 nM) was no more than 500 nM. The same measure, in the same setting: with `CC[C@H]1N(C(=O)n2cnc(Cl)n2)C[C@]12CCCCN(c1nc(OC[C@@]34CCCN3C[C@H](F)C4)nc3c(F)c(-c4ccc(F)c5sc(N)c(C#N)c45)c(Cl)cc13)C2` [Compound 131, 2-amino-4-(6-chloro-4-((1R,4R)-2-(3-chloro-1H-1,2,4-triazole-1-carbonyl)-1-ethyl-2,6-diazaspiro[3.6]decan-6-yl)-8-fluoro-2-(((2R,7aS)-2-fluorotetrahydro-1H-pyrrolizin-7a(5H)-yl)methoxy)quinazolin-7-yl)-7-fluorobenzo[b]thiophene-3-carbonitrile] the figure was no more than 500 nM; with `N#Cc1c(N)sc2c(F)ccc(-c3c(Cl)cc4c(N5CCC[C@@]6(C5)CN(C(=O)n5cnc(Cl)n5)[C@@H]6C5CCC5)nc(OC[C@@]56CCCN5C[C@H](F)C6)nc4c3F)c12` [Compound 133, 2-amino-4-(6-chloro-4-((1R,4R)-2-(3-chloro-1H-1,2,4-triazole-1-carbonyl)-1-cyclobutyl-2,6-diazaspiro[3.5]nonan-6-yl)-8-fluoro-2-(((2R,7aS)-2-fluorotetrahydro-1H-pyrrolizin-7a(5H)-yl)methoxy)quinazolin-7-yl)-7-fluorobenzo[b]thiophene-3-carbonitrile], no more than 500 nM; with `CC(C)[C@H]1N(C(=O)n2cnc(Cl)n2)C[C@@]12CN(c1nc(OC[C@@]34CCCN3C[C@H](F)C4)nc3c(F)c(-c4ccc(F)c5sc(N)c(C#N)c45)c(Cl)cc13)CCO2` [Compound 134, 2-amino-4-(6-chloro-4-((1R,4S)-2-(3-chloro-1H-1,2,4-triazole-1-carbonyl)-1-isopropyl-5-oxa-2,8-diazaspiro[3.5]nonan-8-yl)-8-fluoro-2-(((2R,7aS)-2-fluorotetrahydro-1H-pyrrolizin-7a(5H)-yl)methoxy)quinazolin-7-yl)-7-fluorobenzo[b]thiophene-3-carbonitrile], no more than 500 nM. Take `N#Cc1c(N)sc2c(F)ccc(-c3c(Cl)cc4c(N5CCC(N(C(=O)n6cncn6)C6CC6)C5)nc(OC[C@@]56CCCN5C[C@H](F)C6)nc4c3F)c12` (stereo partly drawn) [Compound 135, N-(1-(7-(2-amino-3-cyano-7-fluorobenzo[b]thiophen-4-yl)-6-chloro-8-fluoro-2-(((2R,7aS)-2-fluorotetrahydro-1H-pyrrolizin-7a(5H)-yl)methoxy)quinazolin-4-yl)pyrrolidin-3-yl)-N-cyclopropyl-1H-1,2,4-triazole-1-carboxamide]: the half-maximal inhibitory concentration (IC50) (≤500 nM) was no more than 500 nM.

Turning to `C=CCN(C[C@@H]1CN(C(=O)n2cnc(F)n2)[C@@H]1C1(C)CC1)c1nc(OC[C@@]23CCCN2C[C@H](F)C3)nc2c(F)c(-c3ccc(F)c4sc(N)c(C#N)c34)c(Cl)cc12` [Compound 136, 4-(4-(allyl(((2S,3R)-1-(3-fluoro-1H-1,2,4-triazole-1-carbonyl)-2-(1-methylcyclopropyl)azetidin-3-yl)methyl)amino)-6-chloro-8-fluoro-2-(((2R,7aS)-2-fluorotetrahydro-1H-pyrrolizin-7a(5H)-yl)methoxy)quinazolin-7-yl)-2-amino-7-fluorobenzo[b]thiophene-3-carbonitrile], under “≤500 nM”, the 50% inhibitory concentration (IC50) is no more than 500 nM. `CC(C)[C@H]1N(C(=O)n2cnc(Cl)n2)C[C@]12C[C@@H](CC#N)CN(c1nc(OC[C@@]34CCCN3C[C@H](F)C4)nc3c(F)c(-c4ccc(F)c5sc(N)c(C#N)c45)c(Cl)cc13)C2` [Compound 137, 2-amino-4-(6-chloro-4-((1R,4R,8S)-2-(3-chloro-1H-1,2,4-triazole-1-carbonyl)-8-(cyanomethyl)-1-isopropyl-2,6-diazaspiro[3.5]nonan-6-yl)-8-fluoro-2-(((2R,7aS)-2-fluorotetrahydro-1H-pyrrolizin-7a(5H)-yl)methoxy)quinazolin-7-yl)-7-fluorobenzo[b]thiophene-3-carbonitrile]: the IC50 (≤500 nM) was no more than 500 nM.

With `CC(C)[C@H]1N(C(=O)n2cnc(C(F)F)n2)C[C@@]12CN(c1nc(OC[C@@]34CCCN3C[C@H](F)C4)nc3c(F)c(-c4ccc(F)c5sc(N)c(C#N)c45)c(Cl)cc13)CCO2` [Compound 138, 2-amino-4-(6-chloro-4-((1R,4S)-2-(3-(difluoromethyl)-1H-1,2,4-triazole-1-carbonyl)-1-isopropyl-5-oxa-2,8-diazaspiro[3.5]nonan-8-yl)-8-fluoro-2-(((2R,7aS)-2-fluorotetrahydro-1H-pyrrolizin-7a(5H)-yl)methoxy)quinazolin-7-yl)-7-fluorobenzo[b]thiophene-3-carbonitrile], under “≤500 nM”, the half-inhibitory concentration (IC50) is no more than 500 nM. As for `CN(C(=O)n1cncn1)C1CN(c2nc(OC[C@@]34CCCN3C[C@H](F)C4)nc3c(F)c(-c4ccc(F)c5sc(N)c(C#N)c45)c(Cl)cc23)CC12CC2` (stereo partly drawn) [Compound 140, N-(5-(7-(2-amino-3-cyano-7-fluorobenzo[b]thiophen-4-yl)-6-chloro-8-fluoro-2-(((2R,7aS)-2-fluorotetrahydro-1H-pyrrolizin-7a(5H)-yl)methoxy)quinazolin-4-yl)-5-azaspiro[2.4]heptan-7-yl)-N-methyl-1H-1,2,4-triazole-1-carboxamide], where the note is “500 nM to 5 μM (mixed units)”, the IC50 lay within 500 to 5000 nM. Consider `CC(C)[C@H]1N(C(=O)n2cnc(F)n2)C[C@]12CCCCN(c1nc(OC[C@@]34CCCN3C[C@H](F)C4)nc3c(F)c(-c4ccc(F)c5sc(N)c(C#N)c45)c(Cl)cc13)C2` [Compound 141, 2-amino-4-(6-chloro-8-fluoro-4-((1R,4R)-2-(3-fluoro-1H-1,2,4-triazole-1-carbonyl)-1-isopropyl-2,6-diazaspiro[3.6]decan-6-yl)-2-(((2R,7aS)-2-fluorotetrahydro-1H-pyrrolizin-7a(5H)-yl)methoxy)quinazolin-7-yl)-7-fluorobenzo[b]thiophene-3-carbonitrile], for which, where the note is “≤500 nM”, the half-inhibitory concentration (IC50) is no more than 500 nM. On the same count and under the same terms, with `CC(C)[C@H]1N(C(=O)n2cnc(Cl)n2)C[C@]12CCCCN(c1nc(OC[C@@]34CCCN3C[C@H](F)C4)nc3c(F)c(-c4ccc(F)c5sc(N)c(C#N)c45)c(Cl)cc13)C2` [Compound 142, 2-amino-4-(6-chloro-4-((1R,4R)-2-(3-chloro-1H-1,2,4-triazole-1-carbonyl)-1-isopropyl-2,6-diazaspiro[3.6]decan-6-yl)-8-fluoro-2-(((2R,7aS)-2-fluorotetrahydro-1H-pyrrolizin-7a(5H)-yl)methoxy)quinazolin-7-yl)-7-fluorobenzo[b]thiophene-3-carbonitrile] the figure was no more than 500 nM; with `N#Cc1c(N)sc2c(F)ccc(-c3c(Cl)cc4c(N5CCC(N(C(=O)n6cnc(Cl)n6)C6CC6)C5)nc(OC[C@@]56CCCN5C[C@H](F)C6)nc4c3F)c12` (stereo partly drawn) [Compound 143, N-(1-(7-(2-amino-3-cyano-7-fluorobenzo[b]thiophen-4-yl)-6-chloro-8-fluoro-2-(((2R,7aS)-2-fluorotetrahydro-1H-pyrrolizin-7a(5H)-yl)methoxy)quinazolin-4-yl)pyrrolidin-3-yl)-3-chloro-N-cyclopropyl-1H-1,2,4-triazole-1-carboxamide], no more than 500 nM.

For `CC(C)[C@@H]1[C@H](CN(C)c2nc(OC[C@@]34CCCN3C[C@H](F)C4)nc3c(F)c(-c4ccc(F)c5sc(N)c(C#N)c45)c(Cl)cc23)CN1C(=O)n1cnc(F)n1` [Compound 144, 2-amino-4-(6-chloro-8-fluoro-4-((((2R,3R)-1-(3-fluoro-1H-1,2,4-triazole-1-carbonyl)-2-isopropylazetidin-3-yl)methyl)(methyl)amino)-2-(((2R,7aS)-2-fluorotetrahydro-1H-pyrrolizin-7a(5H)-yl)methoxy)quinazolin-7-yl)-7-fluorobenzo[b]thiophene-3-carbonitrile], the concentration for half-maximal inhibition (IC50) (≤500 nM) was no more than 500 nM. Regarding `N#CCCN(C(=O)n1cncn1)C1CCN(c2nc(OC[C@@]34CCCN3C[C@H](F)C4)nc3c(F)c(-c4ccc(F)c5sc(N)c(C#N)c45)c(Cl)cc23)C1` (stereo partly drawn) [Compound 145, N-(1-(7-(2-amino-3-cyano-7-fluorobenzo[b]thiophen-4-yl)-6-chloro-8-fluoro-2-(((2R,7aS)-2-fluorotetrahydro-1H-pyrrolizin-7a(5H)-yl)methoxy)quinazolin-4-yl)pyrrolidin-3-yl)-N-(2-cyanoethyl)-1H-1,2,4-triazole-1-carboxamide], the half-inhibitory concentration (IC50) (500 nM to 5 μM (mixed units)) is 500 to 5000 nM.

Consider `C[C@H]1CC[C@]2(CN(C(=O)n3cnc(Cl)n3)[C@@H]2C2CCC2)CN1c1nc(OC[C@@]23CCCN2C[C@H](F)C3)nc2c(F)c(-c3ccc(F)c4sc(N)c(C#N)c34)c(Cl)cc12` [Compound 146, 2-amino-4-(6-chloro-4-((1R,4R,7S)-2-(3-chloro-1H-1,2,4-triazole-1-carbonyl)-1-cyclobutyl-7-methyl-2,6-diazaspiro[3.5]nonan-6-yl)-8-fluoro-2-(((2R,7aS)-2-fluorotetrahydro-1H-pyrrolizin-7a(5H)-yl)methoxy)quinazolin-7-yl)-7-fluorobenzo[b]thiophene-3-carbonitrile], for which, for the setting “≤500 nM”, the IC50 is no more than 500 nM.
